What was measured:
Format in all cases: functional
Rhizoctonia solani = test: Prevention of Rhizoctonia solani-mediated sheath blight of rice disease at 500 ppm after 4 days at 28 degC by Pot test
Pythium aphanidermatum = test: Prevention of Pythium aphanidermatum-mediated damping off of cucumber disease at 500 ppm/20 mL per pot after 14 days at 25 degC under green house by Pot test
Blumeria graminis = test: Prevention of Erysiphe graminis-mediated powdery mildew of wheat disease at 500 ppm after 10 days at 22 deg C under fluorescent lamp by Pot test
P388 [1] = test: Cytotoxicity against mouse P388 cells assessed as cell growth inhibitory ratio at 0.1 ug/mL after 48 hrs relative to control; parameters: scale not given: the % may be the effect or the level left
P388 [2] = test: Cytotoxicity against mouse P388 cells assessed as cell growth inhibitory ratio at 10 ug/mL after 48 hrs relative to control; parameters: scale not given: the % may be the effect or the level left
Venturia inaequalis [3] = test: Prevention of Venturia inaequalis-mediated scab of apple disease at 500 ppm by Pot test
P388 [4] = test: Cytotoxicity against mouse P388 cells assessed as cell growth inhibitory ratio at 1 ug/mL after 48 hrs relative to control; parameters: scale not given: the % may be the effect or the level left
Mycosphaerella [5] = test: Antimicrobial activity against Mycosphaerella melonis at 100 ppm after 4 days at 28 degC
Mycosphaerella [6] = test: Antimicrobial activity against Mycosphaerella melonis at 50 ppm after 4 days at 28 degC
Mycosphaerella [7] = test: Antimicrobial activity against Mycosphaerella melonis at 200 ppm after 4 days at 28 degC
Alternaria [8] = test: Antimicrobial activity against Alternaria kikuchiana at 200 ppm after 4 days at 28 degC
Rhynchosporium secalis [9] = test: Antimicrobial activity against Rhynchosporium secalis at 100 ppm after 11 days at 18 degC
Rhynchosporium secalis [10] = test: Antimicrobial activity against Rhynchosporium secalis at 50 ppm after 11 days at 18 degC
Venturia inaequalis [11] = test: Antimicrobial activity against Venturia inaequalis at 100 ppm after 11 days at 18 degC
Rhynchosporium secalis [12] = test: Antimicrobial activity against Rhynchosporium secalis at 200 ppm after 11 days at 18 degC
Alternaria [13] = test: Antimicrobial activity against Alternaria kikuchiana at 100 ppm after 4 days at 28 degC
Venturia inaequalis [14] = test: Antimicrobial activity against Venturia inaequalis at 200 ppm after 11 days at 18 degC
Alternaria [15] = test: Antimicrobial activity against Alternaria kikuchiana at 50 ppm after 4 days at 28 degC
Pyrenophora graminea [16] = test: Antimicrobial activity against Pyrenophora graminea at 50 ppm after 4 days at 28 degC
Pyrenophora graminea [17] = test: Antimicrobial activity against Pyrenophora graminea at 200 ppm after 4 days at 28 degC
Pyrenophora graminea [18] = test: Antimicrobial activity against Pyrenophora graminea at 100 ppm after 4 days at 28 degC
Venturia inaequalis [19] = test: Antimicrobial activity against Venturia inaequalis at 50 ppm after 11 days at 18 degC

Compound	Activity (Rhizoctonia solani) [%]	Activity (Pythium aphanidermatum) [%]	Activity (Blumeria graminis) [%]	Activity (P388 [1]) [%]	Activity (P388 [2]) [%]	Activity (Venturia inaequalis [3]) [%]	Activity (P388 [4]) [%]	also measured
C=C1C(=O)O[C@H]2CCCCC[C@@H]12	0	0	0	9	102	90	76	
C=C1C(=O)O[C@H]2CC[C@H](C)CC[C@@H]12	0	100	0	15	102	0	50	
C=C1C(=O)O[C@H]2CC[C@@H](C)CC[C@@H]12	0	70	0	38	101	0	69	
C=C1C(=O)O[C@H]2[C@@H](O)CCCC[C@@H]12	50	100	50	11	100	0	40	Activity (Mycosphaerella [5]): 80%; Activity (Mycosphaerella [6]): 70%; Activity (Mycosphaerella [7]): 100%; Activity (Alternaria [8]): 40%; Activity (Rhynchosporium secalis [9]): 60%; Activity (Rhynchosporium secalis [10]): 30%; Activity (Venturia inaequalis [11]): 50%; Activity (Rhynchosporium secalis [12]): 100%; Activity (Alternaria [13]): 20%; Activity (Venturia inaequalis [14]): 0%; Activity (Alternaria [15]): 0%; Activity (Pyrenophora graminea [16]): 0%; Activity (Pyrenophora graminea [17]): 50%; Activity (Pyrenophora graminea [18]): 0%
CC1=C2CCCCC[C@@H]2OC1=O				7	43		4	
O=C1C[C@@H]2CCCC[C@H](O)[C@@H]2O1	0	0	90			0		Activity (Mycosphaerella [5]): 0%; Activity (Mycosphaerella [6]): 0%; Activity (Mycosphaerella [7]): 0%; Activity (Alternaria [8]): 0%; Activity (Rhynchosporium secalis [9]): 0%; Activity (Rhynchosporium secalis [10]): 0%; Activity (Venturia inaequalis [11]): 0%; Activity (Venturia inaequalis [19]): 0%; Activity (Rhynchosporium secalis [12]): 0%; Activity (Alternaria [13]): 0%; Activity (Venturia inaequalis [14]): 0%; Activity (Alternaria [15]): 0%; Activity (Pyrenophora graminea [16]): 0%; Activity (Pyrenophora graminea [17]): 0%; Activity (Pyrenophora graminea [18]): 0%
C=C1C(=O)O[C@H]2[C@@H](OC(C)=O)CCCC[C@@H]12	30	100	30	9	102	0	21	

— ChEMBL document CHEMBL1146534, “Synthetic method and biological activities of cis-fused alpha-methylene gamma-lactones” (2003)
